The results in this text go back to patent US8299073B2, “P38 MAP kinase inhibitors” (Respivert Ltd., priority 2008, dated 2012).

Read-outs that look alike come from different tables or passages of the source. Bounds are passed on as bounds.

The target in data set [1] is T1, recombinant, phosphorylated p38 MAPK gamma (MAPK12:Millipore) (Homo sapiens, UniProt P53778).
T1 construct: purchased Millipore
T1 sequence (P53778 1-367): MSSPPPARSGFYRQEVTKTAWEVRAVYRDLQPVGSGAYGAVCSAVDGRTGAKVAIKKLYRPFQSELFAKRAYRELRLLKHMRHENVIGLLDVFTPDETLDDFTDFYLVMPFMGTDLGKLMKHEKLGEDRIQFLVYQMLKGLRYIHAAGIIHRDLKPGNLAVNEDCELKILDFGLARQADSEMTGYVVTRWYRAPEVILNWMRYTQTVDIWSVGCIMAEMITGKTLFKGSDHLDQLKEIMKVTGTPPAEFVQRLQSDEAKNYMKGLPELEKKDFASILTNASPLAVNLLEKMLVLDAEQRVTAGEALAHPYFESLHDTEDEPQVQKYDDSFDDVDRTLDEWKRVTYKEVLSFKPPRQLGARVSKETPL
As to the kind of experiment: Enzyme inhibition assay (FRET, Z-LYTE), p38 MAPK gamma. In kind it is biochemical. As to conditions: read-out: IC50 values P38γ enzyme.
Description: The enzyme inhibitory activity of compound was determined by fluorescence resonance energy transfer (FRET) using synthetic peptides labelled with both donor and acceptor fluorophores (Z-LYTE, Invitrogen). Briefly, recombinant, phosphorylated p38 MAPK gamma (MAPK12:Millipore) was diluted in HEPES buffer, mixed with compound at desired final concentrations and incubated for two hours at room temperature. The FRET peptide (2 μM) and ATP (100 uM) were next added to the enzyme/compound mixture and incubated for one hour. Development reagent (protease) was added for one hour prior to detection in a fluorescence microplate reader. The site-specific protease only cleaves non-phosphorylated peptide and eliminates the FRET signal. Phosphorylation levels of each reaction were calculated using the ratio of coumarin emission (donor) over fluorescein emission (acceptor) with high ratios indicating high phosphorylation and low ratios, low phosphorylation levels.

Data set [2] concerns LPS-induced TNFα release in differentiated U937 cells. In words: LPS-induced TNF alpha release in differentiated U937 cells. In kind it is cell-based.
Description: U937 cells, human monocytic cell line, were differentiated to macrophage-type cells by incubation with phorbol myristate acetate (PMA; 100 ng/ml) for 48 to 72 hours. Where appropriate, cells were pre-incubated with final concentrations of compound for 2 hrs. Cells were then stimulated with 0.1 μg/mL of LPS (from E. coli: O111:B4, Sigma) for 4 hrs, and the supernatant collected for determination of TNFα concentration by sandwich ELISA (Duo-set, R&D systems).
Data set [3] deals with LPS-induced TNFα release in THP-1 cells. In words: LPS-induced TNF alpha release in THP-1 cells. In kind it is cell-based. The following applies: Homo sapiens.
Description: THP-1, human monocytic cell line, was also used for this assay. THP-1 cells were stimulated with 1 μg/ml of LPS (from E. coli: O111:B4, Sigma) for 4 hrs, and the supernatant collected for determination of TNFα concentration.
THP-1 cells, a human monocytic cell line, were stimulated with 1 μg/ml of LPS (from E. coli; O111:B4, Sigma) for 4 hr and the supernatant collected for determination of TNFα concentration by sandwich ELISA (Duo-set, R&D systems). The inhibition of TNFα production was calculated at each concentration by comparison with vehicle control.
Data set [4] deals with T2, p38 MAPK alpha (MAPK14: Invitrogen) (Homo sapiens, UniProt Q16539).
T2 construct: purchased Invitrogen
T2 sequence (Q16539 whole entry): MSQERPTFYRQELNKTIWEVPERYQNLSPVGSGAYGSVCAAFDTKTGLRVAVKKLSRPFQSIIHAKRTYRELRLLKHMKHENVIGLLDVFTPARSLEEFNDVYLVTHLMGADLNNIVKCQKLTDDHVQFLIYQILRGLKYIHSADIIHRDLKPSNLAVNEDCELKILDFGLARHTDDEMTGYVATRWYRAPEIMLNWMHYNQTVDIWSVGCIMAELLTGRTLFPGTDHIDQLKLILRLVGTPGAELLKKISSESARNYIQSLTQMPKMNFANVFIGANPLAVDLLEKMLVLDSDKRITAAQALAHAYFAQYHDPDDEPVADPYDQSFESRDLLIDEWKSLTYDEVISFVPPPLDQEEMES
In words: Enzyme inhibition assay (FRET, Z-LYTE), p38 MAPK alpha, via activation of MAPKAP-K2. The class given is biochemical. The following applies: read-out: IC50 values p38α enzyme.

In data set [5] the test system is Differentiated U937 cells. In words: MTT assay (loss of cell viability). The class given is cell-based, human. The following applies: loss of cell viability, 10 ug/ml. (In general: Tetrazolium assays rely on reduction of a dye to a coloured formazan, in cell work by metabolically active cells.)
Description: Differentiated U937 cells were pre-incubated with compound for 4 hrs in 5% FCS or 10% FCS for 24 hrs and 72 hr. The supernatant was replaced with 200 ul of new media and 10 μL of MTT stock solution (5 mg/mL) added to each well. After 1 hr incubation, the media were removed, 200 μL of DMSO added to each well and the plates were shaken lightly for 1 hr prior to reading the absorbance at 550 nm.
The percentage loss of cell viability was calculated for each well relative to vehicle (0.5% DMSO)-treatment. Consequently an apparent increase in cell viability for drug treatment relative to vehicle is tabulated as a negative percentage.
[6] abbreviates: Homo sapiens; read-out: R-EC50 values d-U937 cells.
The mark [7] stands for this setting: THP-1, LPS-induced TNFα release, read-out: IC50 values THP-1 cells.

With `CN[C@@H](C)C(=O)Nc1cc(COc2ccc(NC(=O)Nc3cc(C(C)(C)C)nn3-c3ccc(C)cc3)c3ccccc23)ccn1` [Example 9, (S)-N-(4-((4-(3-(3-tert-Butyl-1-p-tolyl-1H-pyrazol-5-yl)ureido)naphthalen-1-yloxy)methyl)pyridin-2-yl)-2-(methylamino)propanamide], the results for the half-inhibitory concentration (IC50) in data set [1], in data set [3] (setting [7]) and in data set [4] were under 500 nM, under 10 nM and under 10 nM, respectively. In addition, the EC50 in data set [2] (setting [6]) was under 10 nM. Moreover, in data set [5], the “MTT 4 hr” value is “− (− <30%)”. The “MTT 24 hr” value in data set [5] was “+ (+ >30% at 10 ug/ml)”.
With `Cc1ccc(-n2nc(C(C)(C)C)cc2NC(=O)Nc2ccc(OCc3ccnc(NC(=O)[C@H]4COCCN4)c3)c3ccccc23)cc1` [Example 10, (R)-N-(4-((4-(3-(3-tert-Butyl-1-p-tolyl-1H-pyrazol-5-yl)ureido)naphthalen-1-yloxy)methyl)pyridin-2-yl)morpholine-3-carboxamide], the results for the IC50 in data set [1], in data set [3] (setting [7]) and in data set [4] were under 5000 nM, under 10 nM and under 500 nM, respectively. In addition, in data set [2] (setting [6]), the EC50 is under 10 nM. Further, the “MTT 4 hr” value in data set [5] is “− (− <30%)”. For the same molecule, the “MTT 24 hr” value in data set [5] was “− (− <30%)”.
In the case of `Cc1ccc(-n2nc(C(C)(C)C)cc2NC(=O)Nc2ccc(OCc3ccnc(NC(=O)[C@@H]4COCCN4)c3)c3ccccc23)cc1` [Example 11, (S)-N-(4-((4-(3-(3-tert-Butyl-1-p-tolyl-1H-pyrazol-5-yl)ureido)naphthalen-1-yloxy)methyl)pyridin-2-yl)morpholine-3-carboxamide], the results for the IC50 in data set [1], in data set [3] (setting [7]) and in data set [4] were under 5000 nM, under 10 nM and under 10 nM, respectively. Moreover, the EC50 in data set [2] (setting [6]) is under 10 nM. The “MTT 4 hr” value in data set [5] was “− (− <30%)”. In data set [5], the “MTT 24 hr” value is recorded as “− (− <30%)”.
Regarding `Cc1ccc(-n2nc(C(C)(C)C)cc2NC(=O)Nc2ccc(OCc3ccnc(NC(=O)N4CCN(C)CC4)c3)c3ccccc23)cc1` [Example 12, N-(4-((4-(3-(3-tert-Butyl-1-p-tolyl-1H-pyrazol-5-yl)ureido)naphthalen-1-yloxy)methyl)pyridin-2-yl)-4-methylpiperazine-1-carboxamide], the IC50 in data set [1] is under 500 nM; in data set [3] (THP-1, read-out: IC50 values THP-1 cells), under 10 nM; in data set [4], under 10 nM. Further, the EC50 in data set [2] (Homo sapiens, read-out: R-EC50 values d-U937 cells) is under 10 nM. The “MTT 4 hr” value in data set [5] is listed as “− (− <30%)”. The “MTT 24 hr” value in data set [5] is “− (− <30%)”.
Regarding `Cc1ccc(-n2nc(C(C)(C)C)cc2NC(=O)Nc2ccc(OCc3ccnc(NC(=O)N4CCOCC4)c3)c3ccccc23)cc1` [Example 13, N-(4-((4-(3-(3-tert-Butyl-1-p-tolyl-1H-pyrazol-5-yl)ureido)naphthalen-1-yloxy)methyl)pyridin-2-yl)morpholine-4-carboxamide], the IC50 in data set [1] was under 500 nM; in data set [3] (setting [7]) it was under 500 nM; in data set [4], under 10 nM. For the same molecule, the 50% effective concentration (EC50) in data set [2] (setting [6]) was under 10 nM. Further, the “MTT 4 hr” value in data set [5] was “− (− <30%)”. Besides, in data set [5], the “MTT 24 hr” value is recorded as “− (− <30%)”.
With `COCCC(=O)Nc1cc(COc2ccc(NC(=O)Nc3cc(C(C)(C)C)nn3-c3ccc(C)cc3)c3ccccc23)ccn1` [Example 14, N-(4-((4-(3-(3-tert-Butyl-1-p-tolyl-1H-pyrazol-5-yl)ureido)naphthalen-1-yloxy)methyl)pyridin-2-yl)-3-methoxypropanamide], the IC50 was under 500 nM in data set [1], under 10 nM in data set [3] (setting [7]) and under 10 nM in data set [4]. Besides, the EC50 in data set [2] (setting [6]) was under 10 nM. In addition, the “MTT 4 hr” value in data set [5] is listed as “− (− <30%)”. In addition, the “MTT 24 hr” value in data set [5] was “− (− <30%)”.
As to `Cc1ccc(-n2nc(C(C)(C)C)cc2NC(=O)Nc2ccc(OCc3ccnc(NC(=O)CCCN(C)C)c3)c3ccccc23)cc1` [Example 16, N-(4-((4-(3-(3-tert-Butyl-1-p-tolyl-1H-pyrazol-5-yl)ureido)naphthalen-1-yloxy)methyl)pyridin-2-yl)-4-(dimethylamino)butanamide], the IC50 in data set [1] was under 500 nM; in data set [3] (setting [7]) it was under 10 nM; in data set [4], under 500 nM. The EC50 in data set [2] (setting [6]) is under 10 nM. Moreover, in data set [5], the “MTT 4 hr” value is “+ (+ >30% at 10 ug/ml)”. Besides, the “MTT 24 hr” value in data set [5] is given as “+ (+ >30% at 10 ug/ml)”.
Regarding `Cc1ccc(-n2nc(C(C)(C)C)cc2NC(=O)Nc2ccc(OCc3ccnc(NC(=O)CCS(C)(=O)=O)c3)c3ccccc23)cc1` [Example 17, N-(4-((4-(3-(3-tert-Butyl-1-p-tolyl-1H-pyrazol-5-yl)ureido)naphthalen-1-yloxy)methyl)pyridin-2-yl)-3-(methylsulfonyl)propanamide], the IC50 was under 500 nM in data set [1], under 10 nM in data set [3] (setting [7]) and under 10 nM in data set [4]. In data set [2] (setting [6]), the EC50 was under 10 nM. Further, the “MTT 4 hr” value in data set [5] is reported as “− (− <30%)”. In data set [5], the “MTT 24 hr” value was “− (− <30%)”.
Consider `Cc1ccc(-n2nc(C(C)(C)C)cc2NC(=O)Nc2ccc(OCc3ccnc(NC(=O)N4CCN(S(C)(=O)=O)C4=O)c3)c3ccccc23)cc1` [Example 18, N-(4-((4-(3-(3-tert-Butyl-1-p-tolyl-1H-pyrazol-5-yl)ureido)naphthalen-1-yloxy)methyl)pyridin-2-yl)-3-(methylsulfonyl)-2-oxoimidazolidine-1-carboxamide], for which the IC50 is over 5000 nM in data set [1], under 10 nM in data set [3] (setting [7]) and under 500 nM in data set [4]. The EC50 in data set [2] (setting [6]) is under 500 nM. For the same molecule, the “MTT 4 hr” value in data set [5] was “− (− <30%)”. In data set [5], the “MTT 24 hr” value is on record as “− (− <30%)”.
In the case of `Cc1ccc(-n2nc(C(C)(C)C)cc2NC(=O)Nc2ccc(OCc3ccnc(NC(=O)CN4CCCC4)c3)c3ccccc23)cc1` [Example 22, N-(4-((4-(3-(3-tert-Butyl-1-p-tolyl-1H-pyrazol-5-yl)ureido)naphthalen-1-yloxy)methyl)pyridin-2-yl)-2-(pyrrolidin-1-yl)acetamide], the IC50 in data set [1] is under 500 nM; in data set [3] (setting [7]) it was under 10 nM; in data set [4], under 10 nM. Besides, the EC50 in data set [2] (setting [6]) is under 10 nM. In addition, the “MTT 4 hr” value in data set [5] is “− (− <30%)”. The “MTT 24 hr” value in data set [5] was “− (− <30%)”.
Consider `Cc1ccc(-n2nc(C(C)(C)C)cc2NC(=O)Nc2ccc(OCc3ccnc(NC(=O)CN4CCN(C)CC4)c3)c3ccccc23)cc1` [Example 23, N-(4-((4-(3-(3-tert-Butyl-1-p-tolyl-1H-pyrazol-5-yl)ureido)naphthalen-1-yloxy)methyl)pyridin-2-yl)-2-(4-methylpiperazin-1-yl)acetamide], for which the IC50 in data set [1] is under 500 nM; in data set [3] (setting [7]), under 10 nM; in data set [4], under 10 nM. For the same molecule, the EC50 in data set [2] (setting [6]) is under 10 nM. In addition, the “MTT 4 hr” value in data set [5] is on record as “+ (+ >30% at 10 ug/ml)”. Besides, the “MTT 24 hr” value in data set [5] is “+ (+ >30% at 10 ug/ml)”.
With `COCCN1CCN(CC(=O)Nc2cc(COc3ccc(NC(=O)Nc4cc(C(C)(C)C)nn4-c4ccc(C)cc4)c4ccccc34)ccn2)CC1` [Example 24, N-(4-((4-(3-(3-tert-Butyl-1-p-tolyl-1H-pyrazol-5-yl)ureido)naphthalen-1-yloxy)methyl)pyridin-2-yl)-2-(4-(2-methoxyethyl)piperazin-1-yl)acetamide], the figures for the IC50 in data set [1], in data set [3] (setting [7]) and in data set [4] were under 500 nM, under 10 nM and under 10 nM, respectively. In data set [2] (setting [6]), the 50% effective concentration (EC50) is under 10 nM. In addition, the “MTT 4 hr” value in data set [5] is given as “− (− <30%)”. Further, the “MTT 24 hr” value in data set [5] was “− (− <30%)”.
As to `CNCC(=O)Nc1cc(COc2ccc(NC(=O)Nc3cc(C(C)(C)C)nn3-c3ccc(C)cc3)c3ccccc23)ccn1` [Example 27, N-(4-((4-(3-(3-tert-Butyl-1-p-tolyl-1H-pyrazol-5-yl)ureido)naphthalen-1-yloxy)methyl)pyridin-2-yl)-2-(methylamino)acetamide], the IC50 in data set [1] is under 500 nM; in data set [3] (setting [7]), under 10 nM; in data set [4] it was under 500 nM. In addition, the EC50 in data set [2] (setting [6]) was under 10 nM. The “MTT 4 hr” value in data set [5] is reported as “− (− <30%)”. For the same molecule, the “MTT 24 hr” value in data set [5] is “− (− <30%)”.
On to `COc1ccc(CN(C)CC(=O)Nc2cc(COc3ccc(NC(=O)Nc4cc(C(C)(C)C)nn4-c4ccc(C)cc4)c4ccccc34)ccn2)cc1` [Example 28, N-(4-((4-(3-(3-tert-Butyl-1-p-tolyl-1H-pyrazol-5-yl)ureido)naphthalen-1-yloxy)methyl)pyridin-2-yl)-2-((4-methoxybenzyl)(methyl)amino)acetamide], for which the results for the IC50 in data set [1], in data set [3] (setting [7]) and in data set [4] were under 5000 nM, under 10 nM and under 500 nM, respectively. Further, the EC50 in data set [2] (setting [6]) was under 10 nM. In data set [5], the “MTT 4 hr” value is listed as “− (− <30%)”. Besides, the “MTT 24 hr” value in data set [5] is listed as “− (− <30%)”.
With `COCCSCC(=O)Nc1cc(COc2ccc(NC(=O)Nc3cc(C(C)(C)C)nn3-c3ccc(C)cc3)c3ccccc23)ccn1` [Example 29, N-(4-((4-(3-(3-tert-Butyl-1-p-tolyl-1H-pyrazol-5-yl)ureido)naphthalen-1-yloxy)methyl)pyridin-2-yl)-2-(2-methoxyethylthio)acetamide], the IC50 in data set [1] was under 500 nM; in data set [3] (setting [7]) it was under 10 nM; in data set [4], under 500 nM. Moreover, in data set [2] (setting [6]), the EC50 is under 10 nM. In addition, the “MTT 4 hr” value in data set [5] is given as “− (− <30%)”. Also, the “MTT 24 hr” value in data set [5] is given as “− (− <30%)”.

A word on the IC50: it is the point on the concentration scale where inhibition reaches its midpoint. As usually defined, the EC50 is the concentration that produces a half-maximal response.
